The values below are quoted from earlier work in patent US20090196919A1, “OXCARBAZEPINE DOSAGE FORMS” (priority 2004, published 2009).

Structures are written as SMILES.

As for `NC(=O)N1c2ccccc2CC(=O)c2ccccc21` [Oxcarbazepine, 10,11-dihydro-10-oxo-5H-dibenz[b,f]azepine-5-carboxamide], the solubility in water result was “poor”.
